Results taken from patent US20250177405A1, “METHODS OF TREATING NEUROLOGICAL AND CARDIOVASCULAR CONDITIONS” (ASTROCYTE PHARMACEUTICALS, INC., priority 2021, published 2025).

Tests used:
[1] = tested on: traumatic brain injury (TBI) in mice; assay: mouse traumatic brain injury (TBI) model; conditions: in vivo
Description: Animals and traumatic brain injury (TBI): TBI is performed with a controlled closed skull injury model as described in Talley-Watts et al. 2012 (J. Neurotrauma 30, 55-66). Following the method described therein, a pneumatic impact device is used to generate a moderate TBI leaving the skull and dura matter intact. To achieve this, C57BL/6 mice are anesthetized with isoflurane (3% induction, 1% maintenance) in 100% oxygen. A body temperature of 37° C. is maintained using a temperature-controlled heated surgical table. A small midline incision is made on the scalp using aseptic surgical techniques. A 5 mm stainless steel disc is positioned on the skull and fixed using superglue on the right parietal bone between bregma and lamda over the somatosensory cortex. The mouse is then positioned on a stage directly under the pneumatic impact tip. […] Mice are placed in a Thermo-Intensive Care Unit (Braintree Scientific model FV-1; 37° C.; 27% O2) and monitored until fully awake and moving freely. […]
Western Blot Analysis for GFAP: At selected survival times, mice are anesthetized under isoflurane and sacrificed. […] The homogenate is transferred to a 2 mL tube and centrifuged at 1000 g for 10 minutes at 4° C. and the supernatant is collected and analyzed. Protein concentration is determined by the BCA assay using a 1:50 dilution. […]

[2] = brain tissue binding (free fraction); assay type: in vitro ADME, mouse; conditions: mouse brain tissue
Text: (§1) Example 3 of U.S. Pat. No. 9,789,131, which is incorporated herein by reference, describes assays for determining the plasma and brain free fraction of certain compounds such as I-1. Compounds described herein may be evaluated using such assays or similar variants thereof.

[3] = plasma protein binding (free fraction); assay type: in vitro ADME; conditions: mouse
Text: as §1

[4] = tested on: rodent model of cerebral ischemia; assay: reproduction of Roucher study: ATP decline during cerebral ischemia; assay type: in vivo, rat; conditions: dose of 0.02 mg/kg, rats
Description: As part of the current study, we first reproduced the original Roucher results.
(§2) We therefore performed the same study using ^31P-ATP and measured the receptor engagement in the brain associated with the beneficial ATP effects.

[5] = biological target: T1, A3R (Rattus norvegicus, UniProt P28647); assay: estimated brain receptor occupancy of R-PIA at A3R; assay type: in vivo; conditions: associated with beneficial ATP effects
T1 sequence (P28647 1-320): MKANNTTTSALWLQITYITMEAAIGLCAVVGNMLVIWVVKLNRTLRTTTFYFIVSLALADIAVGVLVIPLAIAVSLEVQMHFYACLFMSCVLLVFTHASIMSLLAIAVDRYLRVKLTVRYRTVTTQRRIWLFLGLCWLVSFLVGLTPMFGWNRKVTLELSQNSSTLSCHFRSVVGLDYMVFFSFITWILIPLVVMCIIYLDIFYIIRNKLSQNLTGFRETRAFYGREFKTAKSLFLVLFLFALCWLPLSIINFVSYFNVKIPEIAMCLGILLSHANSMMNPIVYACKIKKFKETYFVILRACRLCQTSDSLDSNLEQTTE
Description: as §2

[6] = biological target: T1, A3R; conditions: cited from earlier work
[7] = tested on: reversible forebrain ischemia in the rat; conditions: cited from earlier work
[8] = biological target: T2, A1R (Rattus norvegicus, UniProt P25099); assay: estimated brain receptor occupancy of R-PIA at A1R; assay type: in vivo; conditions: associated with beneficial ATP effects
T2 construct: measured the receptor engagement in the brain associated with the beneficial ATP effects; from tissue; host or cells: brain of living rats (cerebral ischemia model)
T2 sequence (P25099 1-326): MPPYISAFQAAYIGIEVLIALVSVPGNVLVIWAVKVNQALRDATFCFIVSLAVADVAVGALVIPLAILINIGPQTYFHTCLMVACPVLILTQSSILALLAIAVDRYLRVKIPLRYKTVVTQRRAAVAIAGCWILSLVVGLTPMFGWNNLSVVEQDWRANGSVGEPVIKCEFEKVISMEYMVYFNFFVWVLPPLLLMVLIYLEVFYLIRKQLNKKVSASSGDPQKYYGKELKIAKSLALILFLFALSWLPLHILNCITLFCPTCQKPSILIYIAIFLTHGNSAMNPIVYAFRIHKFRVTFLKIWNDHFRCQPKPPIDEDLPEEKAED
Description: as §2

## CNC(=O)[C@H]1O[C@@H](n2cnc3c(NCc4cccc(I)c4)nc(Cl)nc32)[C@H](O)[C@@H]1O [Cl-IB-MECA, 2-Chloro-N^6-(3-iodobenzyl)-adenosine-5′-N-methyluronamide, reference compound]
[1]
  efficacy in mouse TBI model: weakly active
[2]
  free (unbound) fraction in brain: 0.002
[3]
  free (unbound) fraction in plasma: 0.002

## C[C@H](Cc1ccccc1)Nc1ncnc2c1ncn2[C@@H]1O[C@H](CO)[C@@H](O)[C@H]1O [Compound I-25, N^6-(L-2-Phenylisopropyl)adenosine]
[4]
  decline in ATP during ischemia: partial reversal
[5]
  estimated RO % for A3R: 1%
[6]
  Ki: 158 nM
[7]; 30-min ischemia, reference group 6.30
  intracellular pH: 6.40+/−0.10
[7]; before ischemia
  effect on cerebral metabolism before ischemia: no effect
[7]; end of 30-min ischemia, reference group 27+/−9%
  phosphocreatine, % of the control level: 43+/−11%
[7]; end of 30-min ischemia, reference group 40+/−23%
  ATP, % of the control level: 58+/−12%
[7]; end of 30-min ischemia, reference group 905+/−229%
  inorganic phosphate, % of the control level: 672+/−210%
[7]; recirculation, versus reference group
  recovery of PCr, ATP, Pi, and pHi to control levels: faster recovery
[8]
  estimated RO % for A1R: 16%
